Measured values as given in PubChem BioAssay AID250 (DTP/NCI, 2004).
“And” between values parts separate entries of the source, which are not always exact repeats. Equal entries are not always repeated. Toxic doses and inconclusive results are not listed.

System: BDF1 mice, L1210 leukemia sc, survival T/C
Experiment: NCI In Vivo Anticancer Drug Screen. Data for tumor model L1210 Leukemia (subcutaneous) in B6D2F1 (BDF1) mice
Conditions: endpoint: median survival time, vehicle: saline, higher = longer survival
Outline: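 Transplantable tumor-bearing mice; survival or tumor size recorded; result = T/C, treated vs vehicle control.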

CC[C@](O)(C(=O)O)c1cc2n(c(=O)c1CO)Cc1cc3ccccc3nc1-2
T/C (dose: 0.5 mg/kg/injection, schedule: Q01DX009 (ip)): 104 % of control
T/C (dose: 0.5 mg/kg/injection, schedule: Q01DX009 (sc)): 104 % of control
T/C (dose: 1.0 mg/kg/injection, schedule: Q01DX009 (ip)): 102 % of control
T/C (dose: 1.0 mg/kg/injection, schedule: Q01DX009 (sc)): 104 % of control
T/C (dose: 2.0 mg/kg/injection, schedule: Q01DX009 (ip)): 116 % of control
T/C (dose: 2.0 mg/kg/injection, schedule: Q01DX009 (sc)): 110 % of control
T/C (dose: 6.25 mg/kg/injection, schedule: Q02DX005 (sc)): 115 % of control and 120 % of control
T/C (dose: 6.25 mg/kg/injection, schedule: Q04DX003 (sc)): 115 % of control and 116 % of control
T/C (dose: 8.4 mg/kg/injection, schedule: Q04DX003 (sc)): 122 % of control and 123 % of control
T/C (dose: 12.5 mg/kg/injection, schedule: Q02DX005 (sc)): 156 % of control
T/C (dose: 14.0 mg/kg/injection, schedule: Q07DX003 (sc)): 115 % of control and 122 % of control
T/C (dose: 18.0 mg/kg/injection, schedule: Q04DX003 (sc)): 118 % of control and 120 % of control
T/C (dose: 18.0 mg/kg/injection, schedule: Q07DX003 (sc)): 118 % of control and 120 % of control
T/C (dose: 20.0 mg/kg/injection, schedule: Q07DX003 (sc)): 120 % of control and 121 % of control
T/C (dose: 23.0 mg/kg/injection, schedule: Q07DX003 (sc)): 120 % of control and 122 % of control
T/C (dose: 25.0 mg/kg/injection, schedule: Q02DX005 (sc)): 165 % of control and 170 % of control
T/C (dose: 25.0 mg/kg/injection, schedule: Q07DX003 (sc)): 150 % of control and 151 % of control
T/C (dose: 30.0 mg/kg/injection, schedule: Q04DX003 (sc)): 120 % of control
T/C (dose: 30.0 mg/kg/injection, schedule: Q07DX003 (sc)): 120 % of control and 121 % of control
T/C (dose: 32.0 mg/kg/injection, schedule: Q07DX003 (sc)): 155 % of control and 158 % of control
T/C (dose: 39.0 mg/kg/injection, schedule: Q07DX003 (sc)): 120 % of control and 122 % of control
T/C (dose: 39.0 mg/kg/injection, schedule: Q09DX003 (sc)): 116 % of control and 117 % of control
T/C (dose: 40.0 mg/kg/injection, schedule: Q04DX003 (sc)): 160 % of control and 181 % of control
T/C (dose: 50.0 mg/kg/injection, schedule: Q01DX001 (sc)): 118 % of control and 120 % of control
T/C (dose: 62.0 mg/kg/injection, schedule: Q07DX003 (sc)): 175 % of control and 176 % of control
T/C (dose: 65.0 mg/kg/injection, schedule: Q07DX003 (sc)): 121 % of control and 122 % of control
T/C (dose: 65.0 mg/kg/injection, schedule: Q09DX003 (sc)): 122 % of control
T/C (dose: 78.0 mg/kg/injection, schedule: Q07DX003 (sc)): 180 % of control and 181 % of control
T/C (dose: 80.0 mg/kg/injection, schedule: Q04DX003 (sc)): 115 % of control and 118 % of control
T/C (dose: 80.0 mg/kg/injection, schedule: Q07DX003 (sc)): 120 % of control and 123 % of control
T/C (dose: 83.3 mg/kg/injection, schedule: Q01DX001 (sc)): 120 % of control and 121 % of control
T/C (dose: 98.0 mg/kg/injection, schedule: Q07DX003 (sc)): 118 % of control and 120 % of control
T/C (dose: 108.0 mg/kg/injection, schedule: Q07DX003 (sc)): 120 % of control and 122 % of control
T/C (dose: 108.0 mg/kg/injection, schedule: Q09DX003 (sc)): 122 % of control
T/C (dose: 122.0 mg/kg/injection, schedule: Q07DX003 (sc)): 118 % of control and 120 % of control
T/C (dose: 148.0 mg/kg/injection, schedule: Q01DX001 (sc)): 110 % of control
T/C (dose: 160.0 mg/kg/injection, schedule: Q04DX003 (sc)): 90 % of control and 93 % of control
T/C (dose: 160.0 mg/kg/injection, schedule: Q07DX003 (sc)): 110 % of control and 122 % of control
T/C (dose: 180.0 mg/kg/injection, schedule: Q09DX003 (sc)): 116 % of control and 118 % of control
T/C (dose: 191.0 mg/kg/injection, schedule: Q07DX003 (sc)): 150 % of control
T/C (dose: 246.0 mg/kg/injection, schedule: Q01DX001 (sc)): 110 % of control
T/C (dose: 300.0 mg/kg/injection, schedule: Q09DX003 (sc)): 100 % of control and 101 % of control
T/C (dose: 320.0 mg/kg/injection, schedule: Q07DX003 (sc)): 90 % of control
T/C (dose: 468.0 mg/kg/injection, schedule: Q07DX003 (sc)): 120 % of control and 121 % of control
T/C (dose: 731.0 mg/kg/injection, schedule: Q07DX003 (sc)): 90 % of control and 93 % of control
T/C (dose: 800.0 mg/kg/injection, schedule: Q07DX003 (sc)): 88 % of control
